From patent US11155557B2, “Pyrazolopyrimidine compounds and methods of use thereof” (Genentech, Inc., priority 2016, dated 2021)
Like-named read-outs stand apart in the source and are kept apart here.

Key:
[1] = target: isolated recombinant JAK2 kinase domain (Homo sapiens (Human), UniProt O60674); assay: JAK2 enzyme assay (Caliper LabChip, Ki)
Experimental: JAK Enzyme Assays were Carried Out as Follows:
The activity of the isolated recombinant JAK1 and JAK2 kinase domain was measured by monitoring phosphorylation of a peptide derived from JAK3 ([sequence] fluorescently labeled on the N-terminus with 5-carboxyfluorescein) using the Caliper LabChip R technology (Caliper Life Sciences, Hopkinton, Mass.). […] After termination of the kinase reaction, the proportion of phosphorylated product was determined as a fraction of total peptide substrate using the Caliper LabChip R 3000 according to the manufacturer's specifications.

[2] = test system: JAK1-dependent STAT6 phosphorylation in BEAS-2B human bronchial epithelial cells; assay: JAK1 pathway assay: IL-13 stimulated STAT6 phosphorylation in BEAS-2B cells; format: cell-based; conditions: Homo sapiens, BEAS-2B, read-out: IL-13 p-STAT6 BEAS-2B IC50
Outline: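 BEAS-2B bronchial epithelial cells plated one day before, run in complete growth medium. Phospho-STAT6 in lysates measured by MesoScale Discovery; EC50 reported.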

[3] = target: isolated recombinant JAK1 kinase domain (Homo sapiens (Human), UniProt P23458); assay: JAK1 enzyme assay (Caliper LabChip, Ki); format: biochemical
isolated recombinant JAK1 kinase domain, sequence (P23458 875-1153): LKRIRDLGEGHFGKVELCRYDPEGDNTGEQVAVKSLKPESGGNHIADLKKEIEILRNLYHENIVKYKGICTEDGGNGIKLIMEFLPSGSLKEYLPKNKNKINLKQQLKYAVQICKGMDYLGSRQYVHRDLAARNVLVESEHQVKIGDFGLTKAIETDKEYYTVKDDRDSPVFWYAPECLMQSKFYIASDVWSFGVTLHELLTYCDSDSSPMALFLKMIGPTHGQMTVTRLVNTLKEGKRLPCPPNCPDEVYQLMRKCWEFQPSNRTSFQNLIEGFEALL
Experimental: The activity of the isolated recombinant JAK1 and JAK2 kinase domain was measured by monitoring phosphorylation of a peptide derived from JAK3 ([…] fluorescently labeled on the N-terminus with 5-carboxyfluorescein) using the Caliper LabChip R technology (Caliper Life Sciences, Hopkinton, Mass.).

[4] = BEAS-2B cells, IL-13 stimulation

isolated recombinant JAK2 kinase domain, sequence (O60674 849-1124): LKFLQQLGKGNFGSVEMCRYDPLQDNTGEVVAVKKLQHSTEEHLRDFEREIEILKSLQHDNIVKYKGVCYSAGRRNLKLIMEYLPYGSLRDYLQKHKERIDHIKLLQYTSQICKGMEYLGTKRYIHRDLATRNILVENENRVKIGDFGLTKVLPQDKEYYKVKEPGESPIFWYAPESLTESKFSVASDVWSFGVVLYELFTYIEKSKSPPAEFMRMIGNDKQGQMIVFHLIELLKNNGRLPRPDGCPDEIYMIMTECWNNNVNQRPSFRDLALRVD

Compound: N#Cc1cc2cc(OC(F)F)c(-c3nn(CC(=O)N4CCC(CN5CCOCC5)CC4)cc3NC(=O)c3cnn4cccnc34)cc2s1 [Example 60, N-[3-[2-cyano-5-(difluoromethoxy)benzothiophen-6-yl]-1-[2-[4-(morpholinomethyl)-1-piperidyl]-2-oxo-ethyl]pyrazol-4-yl]pyrazolo[1,5-a]pyrimidine-3-carboxamide]
- Ki ([1]; read-out: JAK2 Ki): 0.35 nM
- IC50 [2, 4]: 12 nM
- Ki [3]: 0.36 nM

Compound: NC(=O)c1cc2cc(OC(F)F)c(-c3nn(CC(=O)N4CCC(CN5CCOCC5)CC4)cc3NC(=O)c3cnn4cccnc34)cc2s1 [Example 61, N-[3-[2-carbamoyl-5-(difluoromethoxy)benzothiophen-6-yl]-1-[2-[4-(morpholinomethyl)-1-piperidyl]-2-oxo-ethyl]pyrazol-4-yl]pyrazolo[1,5-a]pyrimidine-3-carboxamide]
- Ki ([1]; read-out: JAK2 Ki): 0.78 nM
- IC50 [2, 4]: > 333 nM
- Ki [3]: 0.64 nM

Compound: NC(=O)c1cc2cc(OC(F)F)c(-c3nn(CC(=O)N4CCC(=O)CC4)cc3NC(=O)c3cnn4cccnc34)cc2s1 [Example 62, N-[3-[2-carbamoyl-5-(difluoromethoxy)benzothiophen-6-yl]-1-[2-oxo-2-(4-oxo-1-piperidyl)ethyl]pyrazol-4-yl]pyrazolo[1,5-a]pyrimidine-3-carboxamide]
- Ki ([1]; read-out: JAK2 Ki): 0.24 nM
- IC50 [2]: > 333 nM
- Ki [3]: 0.38 nM

Compound: CN(CCC#N)C1CCN(C(=O)Cn2cc(NC(=O)c3cnn4cccnc34)c(-c3cc4ccccc4cc3OC(F)F)n2)CC1 [Example 63, N-[1-[2-[4-[2-cyanoethyl(methyl)amino]-1-piperidyl]-2-oxo-ethyl]-3-[3-(difluoromethoxy)-2-naphthyl]pyrazol-4-yl]pyrazolo[1,5-a]pyrimidine-3-carboxamide]
- Ki ([1]; read-out: JAK2 Ki): 0.58 nM
- IC50 [2, 4]: 14 nM
- Ki [3]: 0.4 nM

Compound: N#CC1(CNC2CCN(C(=O)Cn3cc(NC(=O)c4cnn5cccnc45)c(-c4cc5sc(C(N)=O)cc5cc4OC(F)F)n3)CC2)CC1 [Example 64, N-[3-[2-carbamoyl-5-(difluoromethoxy)benzothiophen-6-yl]-1-[2-[4-[(1-cyanocyclopropyl)methylamino]-1-piperidyl]-2-oxo-ethyl]pyrazol-4-yl]pyrazolo[1,5-a]pyrimidine-3-carboxamide]
- Ki ([1]; read-out: JAK2 Ki): 0.35 nM
- IC50 [2, 4]: > 1000 nM
- Ki [3]: 0.29 nM

Compound: O=C(Nc1cn(CC(=O)N2CCC(CN3CCOCC3)CC2)nc1-c1cc2sccc2cc1OC(F)F)c1cnn2cccnc12 [Example 65, N-[3-[5-(difluoromethoxy)benzothiophen-6-yl]-1-[2-[4-(morpholinomethyl)-1-piperidyl]-2-oxo-ethyl]pyrazol-4-yl]pyrazolo[1,5-a]pyrimidine-3-carboxamide]
- Ki ([1]; read-out: JAK2 Ki): 0.6 nM
- IC50 [2, 4]: 13 nM
- Ki [3]: 0.41 nM

Compound: O=C(Nc1cn(CC(=O)N2CCC(N3CCOCC3)CC2)nc1-c1cc2sccc2cc1OC(F)F)c1cnn2cccnc12 [Example 66, N-[3-[5-(difluoromethoxy)benzothiophen-6-yl]-1-[2-(4-morpholino-1-piperidyl)-2-oxo-ethyl]pyrazol-4-yl]pyrazolo[1,5-a]pyrimidine-3-carboxamide]
- Ki ([1]; read-out: JAK2 Ki): 0.49 nM
- IC50 [2, 4]: 21 nM
- Ki [3]: 0.3 nM

Compound: CCN1CCN(C(=O)Cn2cc(NC(=O)c3cnn4cccnc34)c(-c3cc4ccccc4cc3OC(F)F)n2)CC1 [Example 67, N-[3-[3-(difluoromethoxy)-2-naphthyl]-1-[2-(4-ethylpiperazin-1-yl)-2-oxo-ethyl]pyrazol-4-yl]pyrazolo[1,5-a]pyrimidine-3-carboxamide]
- Ki [1]: 4.07 nM
- IC50 [2, 4]: 53 nM
- Ki [3]: 2.11 nM

Compound: O=CN1CCN(C(=O)Cn2cc(NC(=O)c3cnn4cccnc34)c(-c3cc4ccccc4cc3OC(F)F)n2)CC1 [Example 68, N-[3-[3-(difluoromethoxy)-2-naphthyl]-1-[2-(4-formylpiperazin-1-yl)-2-oxo-ethyl]pyrazol-4-yl]pyrazolo[1,5-a]pyrimidine-3-carboxamide]
- Ki [1]: 1.62 nM
- IC50 [2, 4]: 35 nM
- Ki [3]: 0.88 nM

Compound: CN(C)C(=O)CN1CCN(C(=O)Cn2cc(NC(=O)c3cnn4cccnc34)c(-c3cc4ccccc4cc3OC(F)F)n2)CC1 [Example 69, N-[3-[3-(difluoromethoxy)-2-naphthyl]-1-[2-[4-[2-(dimethylamino)-2-oxo-ethyl]piperazin-1-yl]-2-oxo-ethyl]pyrazol-4-yl]pyrazolo[1,5-a]pyrimidine-3-carboxamide]
- Ki ([1]; read-out: JAK2 Ki): 0.94 nM
- IC50 [2, 4]: 152 nM
- Ki [3]: 0.44 nM

Compound: CC(C)(C)OC(=O)N1CCN(C(=O)Cn2cc(NC(=O)c3cnn4cccnc34)c(-c3cc4ccccc4cc3OC(F)F)n2)CC1 [Example 70, tert-butyl 4-[2-[3-[3-(difluoromethoxy)-2-naphthyl]-4-(pyrazolo[1,5-a]pyrimidine-3-carbonylamino)pyrazol-1-yl]acetyl]piperazine-1-carboxylate]
- Ki ([1]; read-out: JAK2 Ki): 1.16 nM
- IC50 [2, 4]: 25 nM
- Ki [3]: 0.35 nM

Compound: O=C(Nc1cn(CC(=O)N2CCNCC2)nc1-c1cc2ccccc2cc1OC(F)F)c1cnn2cccnc12 [Example 71, N-[3-[3-(difluoromethoxy)-2-naphthyl]-1-(2-oxo-2-piperazin-1-yl-ethyl)pyrazol-4-yl]pyrazolo[1,5-a]pyrimidine-3-carboxamide]
- Ki ([1]; read-out: JAK2 Ki): 1.6 nM
- IC50 [2, 4]: 78 nM
- Ki [3]: 0.86 nM

Compound: CN1CCC[C@@H]1Cn1cc(NC(=O)c2cnn3cccnc23)c(-c2cc3c(cc2OC(F)F)NCCS3)n1 [Example 72, N-[3-[6-(difluoromethoxy)-3,4-dihydro-2H-1,4-benzothiazin-7-yl]-1-[[(2R)-1-methylpyrrolidin-2-yl]methyl]pyrazol-4-yl]pyrazolo[1,5-a]pyrimidine-3-carboxamide]
- Ki ([1]; read-out: JAK2 Ki): 0.22 nM
- IC50 [2, 4]: 10 nM
- Ki [3]: 0.22 nM

Compound: CN1CCC[C@@H]1Cn1cc(NC(=O)c2cnn3cccnc23)c(-c2cc3c(cc2OC(F)F)NC(=O)CS3)n1 [Example 73, N-[3-[6-(difluoromethoxy)-3-oxo-4H-1,4-benzothiazin-7-yl]-1-[[(2R)-1-methylpyrrolidin-2-yl]methyl]pyrazol-4-yl]pyrazolo[1,5-a]pyrimidine-3-carboxamide]
- Ki ([1]; read-out: JAK2 Ki): 0.19 nM
- IC50 [2, 4]: 9 nM
- Ki [3]: 0.2 nM

Compound: CN1CCC[C@H]1Cn1cc(NC(=O)c2cnn3cccnc23)c(-c2cc3cn[nH]c3cc2OC(F)F)n1 [Example 76, N-[3-[6-(difluoromethoxy)-1H-indazol-5-yl]-1-[[(2S)-1-methylpyrrolidin-2-yl]methyl]pyrazol-4-yl]pyrazolo[1,5-a]pyrimidine-3-carboxamide]
- Ki ([1]; read-out: JAK2 Ki): 0.53 nM
- IC50 [2, 4]: 17 nM
- Ki [3]: 0.48 nM

Compound: CN1CCC[C@@H]1Cn1cc(NC(=O)c2cnn3cccnc23)c(-c2cc3cn[nH]c3cc2OC(F)F)n1 [Example 77, N-[3-[6-(difluoromethoxy)-1H-indazol-5-yl]-1-[[(2R)-1-methylpyrrolidin-2-yl]methyl]pyrazol-4-yl]pyrazolo[1,5-a]pyrimidine-3-carboxamide]
- Ki ([1]; read-out: JAK2 Ki): 0.43 nM
- IC50 [2, 4]: 9 nM
- Ki [3]: 0.28 nM

Compound: O=C(Nc1cn(CCN[C@@H]2CCOC2)nc1-c1cc2c(cc1OC(F)F)NCCS2)c1cnn2cccnc12 [Example 78, N-[3-[6-(difluoromethoxy)-3,4-dihydro-2H-1,4-benzothiazin-7-yl]-1-[2-[[(3R)-tetrahydrofuran-3-yl]amino]ethyl]pyrazol-4-yl]pyrazolo[1,5-a]pyrimidine-3-carboxamide]
- Ki ([1]; read-out: JAK2 Ki): 0.1 nM
- IC50 [2, 4]: 13 nM
- Ki [3]: 0.19 nM
